Results on 14 compounds are retold here after patent publication US20160108049A1 (TAKEDA Gmbh, priority 2011, published 2016).

SMILES strings stand for the structures.

One assay has as its target T1, PDE4B1 (Homo sapiens, UniProt Q07343).
T1 construct: made in house; host or cells: SF21 insect cells (baculovirus; virus made in SF9 cells, pCR-Bac vector)
As to the kind of experiment: Inhibition of PDE4 activity (PDE4B1, SPA assay). The format is biochemical. The settings on record: recombinant PDE4B1, 0.5 μM cAMP; read-out: PDE4B1 Inhibitory values measured as -logIC50 (converted). Summed up:
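Read-out is SPA yttrium silicate bead scintillation after IBMX-containing beads stop the reaction. Insect-cell (SF21) lysate enzyme hydrolysed 0.5 μM [3H]cAMP at pH 7.4 with 5 mM Mg2+ for 15 min after a 5 min 37 °C preincubation; IC50 fitted by non-linear regression.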

The target of the next assay is T2, human PDE5 (Homo sapiens, UniProt O76074).
T2 construct: from tissue; host or cells: human platelets from fresh donor blood (platelet lysate)
As to the kind of experiment: Inhibition of PDE5 activity (platelet lysate, SPA assay). Type of assay: biochemical. The settings on record: 0.5 μM cGMP, read-out: PDE5 Inhibitory values measured as -logIC50 (converted). Summed up:
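SPA readout of [3H]cGMP hydrolysis (0.5 μM, 15 min, 37 °C after 5 min preincubation), stopped with yttrium silicate beads containing IBMX. Enzyme was lysate from human platelets, used at 10–20% substrate turnover, with PDE3 (motapizone 1 μM) and PDE2 (10 nM) blockers present. IC50 values fitted non-linearly from concentration-effect curves.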

T1 sequence (Q07343 whole entry): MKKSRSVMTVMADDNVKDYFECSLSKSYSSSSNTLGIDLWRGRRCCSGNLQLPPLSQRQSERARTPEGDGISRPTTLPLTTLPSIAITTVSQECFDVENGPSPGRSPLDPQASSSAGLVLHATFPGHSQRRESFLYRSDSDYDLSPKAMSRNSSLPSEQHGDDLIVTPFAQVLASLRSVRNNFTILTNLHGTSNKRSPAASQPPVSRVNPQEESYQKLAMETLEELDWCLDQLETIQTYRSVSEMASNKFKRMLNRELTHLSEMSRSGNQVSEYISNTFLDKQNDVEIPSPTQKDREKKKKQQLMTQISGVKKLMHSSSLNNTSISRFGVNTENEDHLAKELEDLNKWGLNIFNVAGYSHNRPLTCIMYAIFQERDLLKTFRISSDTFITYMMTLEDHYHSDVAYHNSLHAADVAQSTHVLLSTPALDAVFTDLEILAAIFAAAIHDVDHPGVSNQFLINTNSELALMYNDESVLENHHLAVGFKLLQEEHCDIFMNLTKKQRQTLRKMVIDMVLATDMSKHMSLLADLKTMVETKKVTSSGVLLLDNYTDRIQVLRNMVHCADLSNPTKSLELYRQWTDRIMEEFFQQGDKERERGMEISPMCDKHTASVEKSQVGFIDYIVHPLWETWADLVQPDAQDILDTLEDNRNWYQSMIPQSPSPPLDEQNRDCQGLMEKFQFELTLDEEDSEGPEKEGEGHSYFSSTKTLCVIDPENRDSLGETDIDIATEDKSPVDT

For `COc1cc(-c2ncnc3c(C(=O)N[C@H](Cc4ccccc4)C(=O)N4CCC(N5N=C(c6ccc(OC)c(OC)c6)[C@H]6CCCC[C@H]6C5=O)CC4)c[nH]c23)c(OCC2CC2)cc1F` [Example 24, 4-[2-(cyclopropylmethoxy)-4-fluoro-5-methoxyphenyl]-N-[(2R)-1-{4-[(4aS,8aR)-4-(3,4-dimethoxyphenyl)-1-oxo-4a,5,6,7,8,8a-hexahydrophthalazin-2(1H)-yl]piperidin-1-yl}-1-oxo-3-phenylpropan-2-yl]-5H-pyrrolo[3,2-d]pyrimidine-7-carboxamide], the IC50 on PDE4B1 and at human PDE5 was 1 to 10 nM in each case.
On to `COc1ccc(C2=NN(C3CCN(C(=O)[C@@H](Cc4cccc(C)c4)NC(=O)c4c[nH]c5c(-c6c(OCC7CC7)ccc7c6OCO7)ncnc45)CC3)C(=O)[C@@H]3CCCC[C@H]23)cc1OC` [Example 20, 4-[5-(cyclopropylmethoxy)-1,3-benzodioxol-4-yl]-N-[(2R)-1-{4-[(4aS,8aR)-4-(3,4-dimethoxyphenyl)-1-oxo-4a,5,6,7,8,8a-hexahydrophthalazin-2(1H)-yl]piperidin-1-yl}-3-(3-methylphenyl)-1-oxopropan-2-yl]-5H-pyrrolo[3,2-d]pyrimidine-7-carboxamide], for which the IC50 on PDE4B1 was 1 to 10 nM; on human PDE5 it was less than 1 nM.
Taken in the same sequence, the figures for `CCOc1ccc(C[C@@H](NC(=O)c2c(C)[nH]c3c(-c4cc(F)c(OC)cc4OCC4CC4)ncnc23)C(=O)N2CCC(N3N=C(c4ccc(OC)c(OC)c4)[C@H]4CCCC[C@H]4C3=O)CC2)cc1` [Example 8, 4-[2-(cyclopropylmethoxy)-5-fluoro-4-methoxyphenyl]-N-[(2R)-1-{4-[(4aS,8aR)-4-(3,4-dimethoxyphenyl)-1-oxo-4a,5,6,7,8,8a-hexahydrophthalazin-2(1H)-yl]piperidin-1-yl}-3-(4-ethoxyphenyl)-1-oxopropan-2-yl]-6-methyl-5H-pyrrolo[3,2-d]pyrimidine-7-carboxamide] were 1 to 10 nM and less than 1 nM.
The matching figures for `COc1ccc(C2=NN(C3CCN(C(=O)[C@H](Cc4ccccn4)NC(=O)c4c(C)[nH]c5c(-c6c(OCC7CC7)ccc7c6OCO7)ncnc45)CC3)C(=O)[C@@H]3CCCC[C@H]23)cc1OC` [Example 38, 4-[5-(cyclopropylmethoxy)-1,3-benzodioxol-4-yl]-N-[(2S)-1-{4-[(4aS,8aR)-4-(3,4-dimethoxyphenyl)-1-oxo-4a,5,6,7,8,8a-hexahydrophthalazin-2(1H)-yl]piperidin-1-yl}-1-oxo-3-(pyridin-2-yl)propan-2-yl]-6-methyl-5H-pyrrolo[3,2-d]pyrimidine-7-carboxamide]: 1 to 10 nM and less than 1 nM.
Taken in the same sequence, the figures for `COc1ccc(C2=NN(C3CCN(C(=O)[C@@H](CCC(=O)O)NC(=O)c4c[nH]c5c(-c6c(OCC7CC7)ccc7c6OCO7)ncnc45)CC3)C(=O)[C@@H]3CCCC[C@H]23)cc1OC` [Example 101, (4R)-4-[({4-[5-(cyclopropylmethoxy)-1,3-benzodioxol-4-yl]-5H-pyrrolo[3,2-d]pyrimidin-7-yl}carbonyl)amino]-5-{4-[(4aS,8aR)-4-(3,4-dimethoxyphenyl)-1-oxo-4a,5,6,7,8,8a-hexahydrophthalazin-2(1H)-yl]piperidin-1-yl}-5-oxopentanoic acid] were 1 to 10 nM and 1 to 10 nM.
As for `COc1ccc(C2=NN(C3CCN(C(=O)CNC(=O)c4c[nH]c5c(-c6c(OCC7CC7)ccc7c6OCO7)ncnc45)CC3)C(=O)C(C)(C)C2)c2c1OC(C)(C)C2` [Example 117, 4-[5-(cyclopropylmethoxy)-1,3-benzodioxol-4-yl]-N-(2-{4-[3-(7-methoxy-2,2-dimethyl-2,3-dihydro-1-benzofuran-4-yl)-5,5-dimethyl-6-oxo-5,6-dihydropyridazin-1(4H)-yl]piperidin-1-yl}-2-oxoethyl)-5H-pyrrolo[3,2-d]pyrimidine-7-carboxamide], the IC50 on PDE4B1 and at human PDE5 was 1 to 10 nM in each case.
Turning to `COc1ccc(C2=NN(C3CCN(C(=O)[C@@H](Cc4ccccc4Cl)NC(=O)c4c(C)[nH]c5c(-c6c(OCC7CC7)ccc7c6OCO7)ncnc45)CC3)C(=O)[C@@H]3CCCC[C@H]23)cc1OC` [Example 34, N-[(2R)-3-(2-chlorophenyl)-1-{4-[(4aS,8aR)-4-(3,4-dimethoxyphenyl)-1-oxo-4a,5,6,7,8,8a-hexahydrophthalazin-2(1H)-yl]piperidin-1-yl}-1-oxopropan-2-yl]-4-[5-(cyclopropylmethoxy)-1,3-benzodioxol-4-yl]-6-methyl-5H-pyrrolo[3,2-d]pyrimidine-7-carboxamide], the IC50 at PDE4B1 and at human PDE5 was less than 1 nM throughout.
`COc1ccc(C2=NN(C3CCN(C(=O)[C@@H](Cc4ccncc4)NC(=O)c4c[nH]c5c(-c6c(OCC7CC7)ccc7c6OCO7)ncnc45)CC3)C(=O)[C@@H]3CCCC[C@H]23)cc1OC` [Example 109, 4-[5-(cyclopropylmethoxy)-1,3-benzodioxol-4-yl]-N-[(2R)-1-{4-[(4aS,8aR)-4-(3,4-dimethoxyphenyl)-1-oxo-4a,5,6,7,8,8a-hexahydrophthalazin-2(1H)-yl]piperidin-1-yl}-1-oxo-3-(pyridin-4-yl)propan-2-yl]-5H-pyrrolo[3,2-d]pyrimidine-7-carboxamide]: the IC50 at PDE4B1 and at human PDE5 was less than 1 nM each time.
`COc1ccc(C2=NN(C3CCN(C(=O)[C@@H](Cc4ccc(F)c(F)c4)NC(=O)c4c[nH]c5c(-c6c(OCC7CC7)ccc7c6OCO7)ncnc45)CC3)C(=O)[C@@H]3CCCC[C@H]23)cc1OC` [Example 19, 4-[5-(cyclopropylmethoxy)-1,3-benzodioxol-4-yl]-N-[(2R)-3-(3,4-difluorophenyl)-1-{4-[(4aS,8aR)-4-(3,4-dimethoxyphenyl)-1-oxo-4a,5,6,7,8,8a-hexahydrophthalazin-2(1H)-yl]piperidin-1-yl}-1-oxopropan-2-yl]-5H-pyrrolo[3,2-d]pyrimidine-7-carboxamide]: the IC50 on PDE4B1 and at human PDE5 was 1 to 10 nM throughout.
On to `COc1ccc(C2=NN(C3CCN(C(=O)[C@@H](Cc4ccc(C#N)cc4)NC(=O)c4c[nH]c5c(-c6c(OCC7CC7)ccc7c6OCO7)ncnc45)CC3)C(=O)[C@@H]3CCCC[C@H]23)cc1OC` [Example 16, N-[(2R)-3-(4-cyanophenyl)-1-{4-[(4aS,8aR)-4-(3,4-dimethoxyphenyl)-1-oxo-4a,5,6,7,8,8a-hexahydrophthalazin-2(1H)-yl]piperidin-1-yl}-1-oxopropan-2-yl]-4-[5-(cyclopropylmethoxy)-1,3-benzodioxol-4-yl]-5H-pyrrolo[3,2-d]pyrimidine-7-carboxamide], for which the IC50 on PDE4B1 and at human PDE5 was 1 to 10 nM each time.
In the case of `COc1ccc(C2=NN(C3CCN(C(=O)[C@@H](Cc4cc(F)cc(F)c4)NC(=O)c4c[nH]c5c(-c6c(OCC7CC7)ccc7c6OCO7)ncnc45)CC3)C(=O)[C@@H]3CCCC[C@H]23)cc1OC` [Example 1, 4-[5-(cyclopropylmethoxy)-1,3-benzodioxol-4-yl]-N-[(2R)-3-(3,5-difluorophenyl)-1-{4-[(4aS,8aR)-4-(3,4-dimethoxyphenyl)-1-oxo-4a,5,6,7,8,8a-hexahydrophthalazin-2(1H)-yl]piperidin-1-yl}-1-oxopropan-2-yl]-5H-pyrrolo[3,2-d]pyrimidine-7-carboxamide], the figures for the IC50 on PDE4B1 and on human PDE5 were less than 1 nM and 1 to 10 nM, respectively.
Taken in the same sequence, the figures for `COc1ccc(C2=NN(C3CCN(C(=O)[C@@H](Cc4ccccc4Cl)NC(=O)c4c[nH]c5c(-c6c(OCC7CC7)ccc7c6OCO7)ncnc45)CC3)C(=O)[C@@H]3CCCC[C@H]23)cc1OC` [Example 35, N-[(2R)-3-(2-chlorophenyl)-1-{4-[(4aS,8aR)-4-(3,4-dimethoxyphenyl)-1-oxo-4a,5,6,7,8,8a-hexahydrophthalazin-2(1H)-yl]piperidin-1-yl}-1-oxopropan-2-yl]-4-[5-(cyclopropylmethoxy)-1,3-benzodioxol-4-yl]-5H-pyrrolo[3,2-d]pyrimidine-7-carboxamide] were less than 1 nM and less than 1 nM.
As for `COc1cc(OCC2CC2)c(-c2ncnc3c(C(=O)N[C@@H](C(=O)N4CCC(N5N=C(c6ccc(OC)c(OC)c6)[C@H]6CCCC[C@H]6C5=O)CC4)[C@H](C)c4ccccc4)c(C)[nH]c23)cc1F` [Example 37, 4-[2-(cyclopropylmethoxy)-5-fluoro-4-methoxyphenyl]-N-[(2R,3R)-1-{4-[(4aS,8aR)-4-(3,4-dimethoxyphenyl)-1-oxo-4a,5,6,7,8,8a-hexahydrophthalazin-2(1H)-yl]piperidin-1-yl}-1-oxo-3-phenylbutan-2-yl]-6-methyl-5H-pyrrolo[3,2-d]pyrimidine-7-carboxamide], the IC50 on PDE4B1 and at human PDE5 was 1 to 10 nM throughout.
For the compound `COc1ccc(C2=NN(C3CCN(C(=O)[C@H](Cc4cccs4)NC(=O)c4c(C)[nH]c5c(-c6c(OCC7CC7)ccc7c6OCO7)ncnc45)CC3)C(=O)[C@@H]3CCCC[C@H]23)cc1OC` [Example 74, 4-[5-(cyclopropylmethoxy)-1,3-benzodioxol-4-yl]-N-[(2S)-1-{4-[(4aS,8aR)-4-(3,4-dimethoxyphenyl)-1-oxo-4a,5,6,7,8,8a-hexahydrophthalazin-2(1H)-yl]piperidin-1-yl}-1-oxo-3-(thiophen-2-yl)propan-2-yl]-6-methyl-5H-pyrrolo[3,2-d]pyrimidine-7-carboxamide], the IC50 at PDE4B1 and at human PDE5 was less than 1 nM in each case.
